Assay results: patent US11007136B2, “Cosmetic composition for wrinkle reduction containing gypenoside isolated from Gynostemma pentaphyllum” (CELLTRION INC., priority 2015, dated 2021)

Legend:
[1] = Stability of the fraction in raw material solution (HPLC content of UL4, UL5); type: physicochemical; details: for content stability Results: over 12 weeks
Protocol: A solution obtained by dissolving powder of the Gynostemma pentaphyllum gypenoside fraction at a concentration of 4% in 100 mL of a mixed solvent of propylene glycol, glycerin and distilled water at a ratio of 5:3:2 was used to identify stability of the Gynostemma pentaphyllum gypenoside fraction in a raw material state. While the solution was being stored under a condition of 4° C., 30° C. and 45° C. and sunlight for 12 weeks, changes with passage of time (% compared to an initial content) in the gypenosides UL4 and UL5, which were index ingredients for quantification out of the Gynostemma pentaphyllum gypenosides, were observed through an HPLC analysis and results thereof were indicated in Table 3.

[2] = system: human dermal fibroblast neonatal; test: Cytotoxicity test (MTT); type: cell-based; details: for HDFn Viability: 48 h, % control
Protocol: A human dermal fibroblast neonatal (Cascade Co.) was inoculated into a 24-well microplate (5×10^4 cells/well) by using a medium, in which Dulbeco's Modified Eagle's Medium (DMEM) was supplemented with 10% fetal bovine serum, thus being cultured under a condition of 37° C. and 5% CO2 for 24 hours. Then, the same was replaced with a serum-free DMEM medium and cultured for 24 hours, thus treating the Gynostemma pentaphyllum gypenoside fraction obtained from the Example 1 and the gypenosides UL4 and UL5 isolated therefrom, respectively. After being cultured for 48 hours, an MTT solution was added thereto, thus being cultured for four hours. The medium was removed therefrom and DMSO was added thereto, thus dissolving an MTT formazan. The MTT formazan dissolved in the DMSO was taken out and an optical density thereof was measured at 570 nm, thus being compared to a group without sample treatment and indicated as % control.

[3] = Titer stability of UL4 and UL5 within formulations (HPLC); type: physicochemical; details: for content stability Result: over 12 weeks
Protocol: As shown in Formulation Examples 1, 2 and 3, cosmetic compositions of a high viscosity emulsified formulation, a low viscosity emulsified formulation and a solubilized formulation, respectively comprising 0.2% of the Gynostemma pentaphyllum gypenoside fraction, were stored under a condition of 4 CC, 30 CC, 45° C. and sunlight for 12 weeks and changes with passage of time (% compared to an initial content) in the gypenosides UL4 and UL5, which were index ingredients for quantification out of the Gynostemma pentaphyllum gypenoside ingredients, were observed through an HPLC analysis, and results thereof were indicated in Tables 10 to 12.

SMILES: CC(C)=CC1C[C@](O)([C@H]2CC[C@]3(C)[C@@H]2CC[C@@H]2[C@@]4(C=O)CC[C@H](O[C@@H]5OC[C@H](O)[C@H](O[C@@H]6OC[C@@H](O)[C@H](O)[C@H]6O)[C@H]5O[C@@H]5O[C@@H](C)[C@H](O)[C@@H](O)[C@H]5O)C(C)(C)[C@@H]4CC[C@]23C)[C@H](O)O1 (stereo partly drawn) [Gypenoside UL4, (23ξ)-3β,20β,21α-trihydroxy-19-oxo-21,23-epoxy-dammar-24-ene-3-O-[α-L-rhamnopyranosyl (1→2)][β-D-xylopyranosyl (1→3)]-α-L-arabinopyranoside]
- content, % compared to an initial content ([1]; 4° C., 1 week): 100.2%
- content, % compared to an initial content ([1]; 4° C., 2 weeks): 98.1%
- content, % compared to an initial content ([1]; 4° C., 4 weeks): 96.9%
- content, % compared to an initial content ([1]; 4° C., 8 weeks): 98.3%
- content, % compared to an initial content ([1]; 4° C., 12 weeks): 96.1%
- content stability Results ([1]; 4° C.): Stable
- content, % compared to an initial content ([1]; 30° C., 1 week): 102.8%
- content, % compared to an initial content ([1]; 30° C., 2 weeks): 99.9%
- content, % compared to an initial content ([1]; 30° C., 4 weeks): 98.7%
- content, % compared to an initial content ([1]; 30° C., 8 weeks): 96.5%
- content, % compared to an initial content ([1]; 30° C., 12 weeks): 96.6%
- content stability Results ([1]; 30° C.): Stable
- content, % compared to an initial content ([1]; 45° C., 1 week): 97.1%
- content, % compared to an initial content ([1]; 45° C., 2 weeks): 96.3%
- content, % compared to an initial content ([1]; 45° C., 4 weeks): 102.7%
- content, % compared to an initial content ([1]; 45° C., 8 weeks): 97.5%
- content, % compared to an initial content ([1]; 45° C., 12 weeks): 102.4%
- content stability Results ([1]; 45° C.): Stable
- content, % compared to an initial content ([1]; Sunlight, 1 week): 97.6%
- content, % compared to an initial content ([1]; Sunlight, 2 weeks): 96.6%
- content, % compared to an initial content ([1]; Sunlight, 4 weeks): 96.6%
- content, % compared to an initial content ([1]; Sunlight, 8 weeks): 98.1%
- content, % compared to an initial content ([1]; Sunlight, 12 weeks): 97.1%
- content stability Results ([1]; Sunlight): Stable
- HDFn Viability ([2]; 5 ug/ml): 98%
- HDFn Viability ([2]; 10 ug/ml): 100%
- HDFn Viability ([2]; 50 ug/ml): 106%
- cytotoxicity ([2]; at concentrations promoting procollagen synthesis): did not show any cytotoxicity
- content, % compared to an initial content ([3]; High viscosity emulsified formulation, 4° C., 1 week): 101.9%
- content, % compared to an initial content ([3]; High viscosity emulsified formulation, 4° C., 2 weeks): 95.9%
- content, % compared to an initial content ([3]; High viscosity emulsified formulation, 4° C., 4 weeks): 102%
- content, % compared to an initial content ([3]; High viscosity emulsified formulation, 4° C., 8 weeks): 101.4%
- content, % compared to an initial content ([3]; High viscosity emulsified formulation, 4° C., 12 weeks): 104.1%
- content stability Result ([3]; High viscosity emulsified formulation, 4° C.): Stable
- content, % compared to an initial content ([3]; High viscosity emulsified formulation, 30° C., 1 week): 105.2%
- content, % compared to an initial content ([3]; High viscosity emulsified formulation, 30° C., 2 weeks): 103.1%
- content, % compared to an initial content ([3]; High viscosity emulsified formulation, 30° C., 4 weeks): 104.4%
- content, % compared to an initial content ([3]; High viscosity emulsified formulation, 30° C., 8 weeks): 105.7%
- content, % compared to an initial content ([3]; High viscosity emulsified formulation, 30° C., 12 weeks): 108.2%
- content stability Result ([3]; High viscosity emulsified formulation, 30° C.): Stable
- content, % compared to an initial content ([3]; High viscosity emulsified formulation, 45° C., 1 week): 105.3%
- content, % compared to an initial content ([3]; High viscosity emulsified formulation, 45° C., 2 weeks): 108.2%
- content, % compared to an initial content ([3]; High viscosity emulsified formulation, 45° C., 4 weeks): 107.6%
- content, % compared to an initial content ([3]; High viscosity emulsified formulation, 45° C., 8 weeks): 108.1%
- content, % compared to an initial content ([3]; High viscosity emulsified formulation, 45° C., 12 weeks): 107.1%
- content stability Result ([3]; High viscosity emulsified formulation, 45° C.): Stable
- content, % compared to an initial content ([3]; High viscosity emulsified formulation, Sunlight, 1 week): 102.4%
- content, % compared to an initial content ([3]; High viscosity emulsified formulation, Sunlight, 2 weeks): 99.8%
- content, % compared to an initial content ([3]; High viscosity emulsified formulation, Sunlight, 4 weeks): 101.2%
- content, % compared to an initial content ([3]; High viscosity emulsified formulation, Sunlight, 8 weeks): 99.4%
- content, % compared to an initial content ([3]; High viscosity emulsified formulation, Sunlight, 12 weeks): 103.6%
- content stability Result ([3]; High viscosity emulsified formulation, Sunlight): Stable
- content, % compared to an initial content ([3]; Low viscosity emulsified formulation, 4° C., 1 week): 100.1%
- content, % compared to an initial content ([3]; Low viscosity emulsified formulation, 4° C., 2 weeks): 102.4%
- content, % compared to an initial content ([3]; Low viscosity emulsified formulation, 4° C., 4 weeks): 101.2%
- content, % compared to an initial content ([3]; Low viscosity emulsified formulation, 4° C., 8 weeks): 94.9%
- content, % compared to an initial content ([3]; Low viscosity emulsified formulation, 4° C., 12 weeks): 94.1%
- content stability Result ([3]; Low viscosity emulsified formulation, 4° C.): Stable
- content, % compared to an initial content ([3]; Low viscosity emulsified formulation, 30° C., 1 week): 105.0%
- content, % compared to an initial content ([3]; Low viscosity emulsified formulation, 30° C., 2 weeks): 101.8%
- content, % compared to an initial content ([3]; Low viscosity emulsified formulation, 30° C., 4 weeks): 101.6%
- content, % compared to an initial content ([3]; Low viscosity emulsified formulation, 30° C., 8 weeks): 104.1%
- content, % compared to an initial content ([3]; Low viscosity emulsified formulation, 30° C., 12 weeks): 105.2%
- content stability Result ([3]; Low viscosity emulsified formulation, 30° C.): Stable
- content, % compared to an initial content ([3]; Low viscosity emulsified formulation, 45° C., 1 week): 101.9%
- content, % compared to an initial content ([3]; Low viscosity emulsified formulation, 45° C., 2 weeks): 106.2%
- content, % compared to an initial content ([3]; Low viscosity emulsified formulation, 45° C., 4 weeks): 105.9%
- content, % compared to an initial content ([3]; Low viscosity emulsified formulation, 45° C., 8 weeks): 95.6%
- content, % compared to an initial content ([3]; Low viscosity emulsified formulation, 45° C., 12 weeks): 99.3%
- content stability Result ([3]; Low viscosity emulsified formulation, 45° C.): Stable
- content, % compared to an initial content ([3]; Low viscosity emulsified formulation, Sunlight, 1 week): 96.3%
- content, % compared to an initial content ([3]; Low viscosity emulsified formulation, Sunlight, 2 weeks): 99.5%
- content, % compared to an initial content ([3]; Low viscosity emulsified formulation, Sunlight, 4 weeks): 100.5%
- content, % compared to an initial content ([3]; Low viscosity emulsified formulation, Sunlight, 8 weeks): 99.8%
- content, % compared to an initial content ([3]; Low viscosity emulsified formulation, Sunlight, 12 weeks): 102%
- content stability Result ([3]; Low viscosity emulsified formulation, Sunlight): Stable
- content, % compared to an initial content ([3]; Solubilized formulation, 4° C., 1 week): 98.8%
- content, % compared to an initial content ([3]; Solubilized formulation, 4° C., 2 weeks): 91.9%
- content, % compared to an initial content ([3]; Solubilized formulation, 4° C., 4 weeks): 98.7%
- content, % compared to an initial content ([3]; Solubilized formulation, 4° C., 8 weeks): 97.6%
- content, % compared to an initial content ([3]; Solubilized formulation, 4° C., 12 weeks): 99.5%
- content stability Result ([3]; Solubilized formulation, 4° C.): Stable
- content, % compared to an initial content ([3]; Solubilized formulation, 30° C., 1 week): 100.0%
- content, % compared to an initial content ([3]; Solubilized formulation, 30° C., 2 weeks): 103.2%
- content, % compared to an initial content ([3]; Solubilized formulation, 30° C., 4 weeks): 102.7%
- content, % compared to an initial content ([3]; Solubilized formulation, 30° C., 8 weeks): 98.5%
- content, % compared to an initial content ([3]; Solubilized formulation, 30° C., 12 weeks): 104.5%
- content stability Result ([3]; Solubilized formulation, 30° C.): Stable
- content, % compared to an initial content ([3]; Solubilized formulation, 45° C., 1 week): 102.8%
- content, % compared to an initial content ([3]; Solubilized formulation, 45° C., 2 weeks): 101.6%
- content, % compared to an initial content ([3]; Solubilized formulation, 45° C., 4 weeks): 94.2%
- content, % compared to an initial content ([3]; Solubilized formulation, 45° C., 8 weeks): 97.2%
- content, % compared to an initial content ([3]; Solubilized formulation, 45° C., 12 weeks): 94.9%
- content stability Result ([3]; Solubilized formulation, 45° C.): Stable
- content, % compared to an initial content ([3]; Solubilized formulation, Sunlight, 1 week): 98.8%
- content, % compared to an initial content ([3]; Solubilized formulation, Sunlight, 2 weeks): 94.8%
- content, % compared to an initial content ([3]; Solubilized formulation, Sunlight, 4 weeks): 98.4%
- content, % compared to an initial content ([3]; Solubilized formulation, Sunlight, 8 weeks): 98%
- content, % compared to an initial content ([3]; Solubilized formulation, Sunlight, 12 weeks): 94.6%
- content stability Result ([3]; Solubilized formulation, Sunlight): Stable
